Measured values published in patent publication US11912650B2, “Bakuchiol derivatives, pharmaceutically acceptable salts thereof, and preparation method and use of the same” (priority 2020, dated 2024).
In brackets after ≈: the same amount, converted by molar mass. Where two headings read alike, the source gives them in different places.

What was measured:
Gram-negative bacteria = assay: Antibacterial activity against Gram-negative bacteria (MIC summary); type: cell-based; conditions: 24 h; summary of tables 1 and 2
Description: (§1) Antibacterial activity assay. The antibacterial activities of all the compounds were determined according to a broth dilution method specified in Clinical and Laboratory Standards Institute (CLSI) guidelines. Bacterial cells were inoculated on a Mueller-Hinton agar (MHA) plate for overnight culture, and the concentration of the bacterial cells was adjusted to about 1×10^6 colony-forming units (CFU)/mL with phosphate buffered saline (PBS). First, a 1000 μg/mL stock solution (a final concentration of dimethyl sulfoxide (DMSO) was ≤2%) was prepared by dissolving a sample in DMSO/H2O. Then, the stock solution was diluted with Mueller-Hinton Broth (MHB) to an initial concentration of 100 μg/mL, and the sample solution (100 μL) was subjected to two-fold gradient dilution with MHB in a 96-well plate, to obtain 100 μg/mL to 0.78 μg/mL serial dilutions. Then, a bacterial suspension (100 μL) was added to each well of the 96-well plate and mixed with the test sample solution (100 μL). Among them, test systems for compounds 38, 44-45, 58-61 and 63-64 contained 0.05% of Tween 80. Finally, the 96-well plate was incubated at 37° C. for 24 hours. Absorbances at 600 nm at 0 and 24 h were measured. An minimum inhibitory concentration (MIC) value was defined as the lowest concentration where no visible bacterial growth occurred. All experiments were carried out in at least two duplicates, and biological repeatability could be achieved.

S. aureus ATCC29213 = assay: Antibacterial activity assay (broth dilution MIC); type: cell-based; conditions: Staphylococcus aureus, 37° C., 24 h, compounds 38, 44-45, 58-61, 63-64 with 0.05% Tween 80
Description: as §1

E. coli ATCC25922 = assay: Antibacterial activity assay (broth dilution MIC); type: cell-based; conditions: Escherichia coli, 37° C., 24 h, compounds 38, 44-45, 58-61, 63-64 with 0.05% Tween 80
Description: as §1

Gram-positive bacteria = assay: Antibacterial activity against Gram-positive bacteria (MIC summary); type: cell-based; conditions: 24 h, read-out: minimum inhibitory concentration (MIC) against Gram-positive bacteria
Description: as §1

MRSA N315 = assay: Antibacterial activity assay (broth dilution MIC); type: cell-based, methicillin-resistant Staphylococcus aureus; conditions: Staphylococcus aureus, 37° C., 24 h, compounds 38, 44-45, 58-61, 63-64 with 0.05% Tween 80
Description: as §1

MRSA NCTC10442 = assay: Antibacterial activity assay (broth dilution MIC); type: cell-based, methicillin-resistant Staphylococcus aureus; conditions: Staphylococcus aureus, 37° C., 24 h, compounds 38, 44-45, 58-61, 63-64 with 0.05% Tween 80
Description: as §1

Row | Structure (SMILES) | MIC (Gram-negative bacteria) [µg/mL] | MIC (S. aureus ATCC29213) [µg/mL] | MIC (E. coli ATCC25922) [µg/mL] | MIC (Gram-positive bacteria; summary of tables 1 and 2) [µg/mL] | MIC (MRSA N315) [µg/mL] | MIC (MRSA NCTC10442) [µg/mL] | MIC (Gram-positive bacteria) [µg/mL]
1 | C=C[C@@](C)(/C=C/c1ccc(OCCCCN(C)CCCN(C)C)cc1)CCC=C(C)C [Compound 26] | 1.56 to 3.12 (≈ 3.66 to 7.32 µM) | 1.56 (≈ 3.66 µM) | 3.12 (≈ 7.32 µM) | 0.39 to 3.12 (≈ 0.914 to 7.32 µM) | 1.56 (≈ 3.66 µM) | 3.12 (≈ 7.32 µM) | 
2 | C=C[C@@](C)(/C=C/c1ccc(OCCCCN(C)CCCN(C)CCCNC)cc1)CCC=C(C)C [Compound 27] | 1.56 to 3.12 (≈ 3.22 to 6.46 µM) | 1.56 (≈ 3.22 µM) | 1.56 (≈ 3.22 µM) | 0.39 to 3.12 (≈ 0.806 to 6.46 µM) | 0.78 (≈ 1.61 µM) | 1.56 (≈ 3.22 µM) | 
3 | C=C[C@](C)(/C=C/c1ccc(OCCCCNCCN(CCN)CCN)cc1)CCC=C(C)C [Compound 29] | 1.56 to 3.12 (≈ 3.42 to 6.84 µM) | 0.78 (≈ 1.71 µM) | 3.12 (≈ 6.84 µM) | 0.39 to 3.12 (≈ 0.854 to 6.84 µM) | 0.78 (≈ 1.71 µM) | 0.78 (≈ 1.71 µM) | 
4 | C=C[C@@](C)(/C=C/c1ccc(OCCCCN2CCCNCCNCCCNCC2)cc1)CCC=C(C)C [Compound 30] | 1.56 to 3.12 (≈ 3.05 to 6.12 µM) | 0.78 (≈ 1.53 µM) | 3.12 (≈ 6.12 µM) | 0.39 to 3.12 (≈ 0.763 to 6.12 µM) | 0.78 (≈ 1.53 µM) | 0.78 (≈ 1.53 µM) | 
5 | C=C[C@@](C)(/C=C/c1ccc(OCCCCN2CCNCCNCCNCCNCC2)cc1)CCC=C(C)C [Compound 31] |  | 1.56 (≈ 2.97 µM) | 6.25 (≈ 11.9 µM) | 0.39 to 3.12 (≈ 0.742 to 5.94 µM) | 0.78 (≈ 1.48 µM) | 1.56 (≈ 2.97 µM) | 
6 | C=C[C@@](C)(/C=C/c1ccc(OCCCCNC(=N)N)cc1)CCC=C(C)C [Compound 35] |  | 3.12 (≈ 8.46 µM) | 25 (≈ 67.6 µM) | 0.39 to 3.12 (≈ 1.06 to 8.46 µM) | 1.56 (≈ 4.22 µM) | 3.12 (≈ 8.46 µM) | 
7 | C=C[C@](C)(/C=C/c1ccc(OCC(=O)N[C@@H](CCCNC(=N)N)C(=O)OC)cc1)CCC=C(C)C [Compound 38] |  | 0.78 (≈ 1.61 µM) | 6.25 (≈ 12.9 µM) |  | 1.56 (≈ 3.22 µM) | 0.78 (≈ 1.61 µM) | 0.39 to 3.12 (≈ 0.805 to 6.45 µM)
8 | C=C[C@](C)(/C=C/c1ccc(OCC(=O)N[C@H](CCCNC(=N)N)C(N)=O)cc1)CCC=C(C)C [Compound 39] |  | 3.12 (≈ 6.65 µM) | 12.5 (≈ 26.6 µM) |  | 3.12 (≈ 6.65 µM) | 3.12 (≈ 6.65 µM) | 0.39 to 3.12 (≈ 0.83 to 6.65 µM)
9 | C=C[C@](C)(/C=C/c1ccc(OCC(=O)N[C@@H](Cc2c[nH]cn2)C(=O)OC)cc1)CCC=C(C)C [Compound 40] |  | 6.25 (≈ 13.4 µM) | > 100 |  | 6.25 (≈ 13.4 µM) | 6.25 (≈ 13.4 µM) | 
10 | C=C[C@](C)(/C=C/c1ccc(OCC(=O)N[C@@H](CCCNC(=N)N)C(=O)N[C@@H](CCCNC(=N)N)C(=O)OC)cc1)CCC=C(C)C [Compound 44] | 1.56 to 3.12 (≈ 2.43 to 4.88 µM) | 0.78 (≈ 1.22 µM) | 3.12 (≈ 4.88 µM) |  | 0.78 (≈ 1.22 µM) | 1.56 (≈ 2.43 µM) | 0.39 to 3.12 (≈ 0.609 to 4.88 µM)
11 | C=C[C@](C)(/C=C/c1ccc(OCC(=O)N[C@@H](CCCNC(=N)N)C(=O)N[C@@H](CCCNC(=N)N)C(=O)N[C@@H](CCCNC(=N)N)C(=O)OC)cc1)CCC=C(C)C [Compound 45] |  | 0.39 (≈ 0.489 µM) | 6.25 (≈ 7.84 µM) |  | 0.78 (≈ 0.979 µM) | 1.56 (≈ 1.96 µM) | 0.39 to 3.12 (≈ 0.489 to 3.92 µM)
12 | C=C[C@@](C)(/C=C/c1ccc(OCC(=O)N[C@@H](CCCCN)C(=O)OC)cc1)CCC=C(C)C [Compound 47] |  | 6.25 (≈ 13.7 µM) | 12.5 (≈ 27.4 µM) |  | 6.25 (≈ 13.7 µM) | 6.25 (≈ 13.7 µM) | 
13 | C=C[C@](C)(/C=C/c1ccc(OCC(=O)N[C@@H](CCCNC(=N)N)C(=O)N[C@@H](CCCNC(=N)N)C(N)=O)cc1)CCC=C(C)C [Compound 49] |  | 1.56 (≈ 2.49 µM) | 12.5 (≈ 20 µM) |  | 3.12 (≈ 4.99 µM) | 1.56 (≈ 2.49 µM) | 0.39 to 3.12 (≈ 0.623 to 4.99 µM)
14 | C=C[C@@](C)(/C=C\c1ccc(OCC(=O)N[C@@H](CCCNC(=N)N)C(=O)N[C@@H](Cc2c[nH]cn2)C(=O)OC)cc1)CCC=C(C)C [Compound 50] |  | 6.25 (≈ 10.1 µM) | 12.5 (≈ 20.1 µM) |  | 6.25 (≈ 10.1 µM) | 6.25 (≈ 10.1 µM) | 
15 | C=C[C@](C)(/C=C/c1ccc(OCC(=O)N[C@@H](CCCNC(=N)N)C(=O)NCCCN(CC)CC)cc1)CCC=C(C)C [Compound 52] |  | 1.56 (≈ 2.68 µM) | 25 (≈ 42.9 µM) | 0.39 to 3.12 (≈ 0.669 to 5.36 µM) | 0.78 (≈ 1.34 µM) | 0.78 (≈ 1.34 µM) | 
16 | C=C[C@](C)(/C=C/c1ccc(OCC(=O)N[C@H](CCCNC(=N)N)C(=O)N2CCN(c3ccc(N4CC(CNC(C)=O)OC4=O)cc3F)CC2)cc1)CCC=C(C)C (some centres unmarked) [Compound 53] |  | 0.78 (≈ 0.989 µM) | 6.25 (≈ 7.92 µM) | 0.39 to 3.12 (≈ 0.494 to 3.96 µM) | 0.78 (≈ 0.989 µM) | 0.78 (≈ 0.989 µM) | 
17 | C=C[C@](C)(/C=C/c1ccc(OCC(=O)N[C@@H](Cc2c[nH]cn2)C(=O)N[C@@H](Cc2c[nH]cn2)C(=O)OC)cc1)CCC=C(C)C [Compound 55] |  | 12.5 (≈ 20.7 µM) | > 100 |  | 12.5 (≈ 20.7 µM) | 12.5 (≈ 20.7 µM) | 
18 | C=C[C@](C)(/C=C/c1ccc(OCC(=O)N[C@@H](CCCNC(=N)N)C(=O)N[C@@H](CCCNC(=N)N)C(=O)N2CCN(c3ccc(N4C[C@H](CNC(C)=O)OC4=O)cc3F)CC2)cc1)CCC=C(C)C [Compound 59] | 1.56 to 3.12 (≈ 1.65 to 3.31 µM) | 0.78 (≈ 0.825 µM) | 1.56 (≈ 1.65 µM) | 0.39 to 3.12 (≈ 0.413 to 3.31 µM) | 0.78 (≈ 0.825 µM) | 0.78 (≈ 0.825 µM) | 
